Key:
Type in all cases: functional
[1] = Cytotoxicity against human SW620 cells assessed as cell growth at 10 uM after 72 hrs by SRB assay relative to control; settings: SW-620, 72 h, read-out: Activity
[2] = Cytotoxicity against human SF268 cells assessed as cell growth at 10 uM after 72 hrs by SRB assay relative to control; settings: SF-268, 72 h, read-out: Activity
NCI-H226 = test: Cytotoxicity against human NCI-H226 cells assessed as cell growth at 10 uM after 72 hrs by SRB assay relative to control; settings: NCI-H226, 72 h, read-out: Activity
[3] = Cytotoxicity against human OVCAR3 cells assessed as cell growth at 10 uM after 72 hrs by SRB assay relative to control; settings: OVCAR-3, 72 h, read-out: Activity
[4] = Cytotoxicity against human SNB19 cells assessed as cell growth at 10 uM after 72 hrs by SRB assay relative to control; settings: SNB-19, 72 h, read-out: Activity
[5] = Cytotoxicity against human BT549 cells assessed as cell growth at 10 uM after 72 hrs by SRB assay relative to control; settings: BT-549, 72 h, read-out: Activity
[6] = Cytotoxicity against human HOP62 cells assessed as cell growth at 10 uM after 72 hrs by SRB assay relative to control; settings: HOP-62, 72 h, read-out: Activity
[7] = Cytotoxicity against human Caki1 cells assessed as cell growth at 10 uM after 72 hrs by SRB assay relative to control; settings: CAKI-1, 72 h, read-out: Activity
ACHN = test: Cytotoxicity against human ACHN cells assessed as cell growth at 10 uM after 72 hrs by SRB assay relative to control; settings: read-out: Activity
MDA-MB-231 = test: Cytotoxicity against human MDA-MB-231 cells assessed as cell growth at 10 uM after 72 hrs by SRB assay relative to control; settings: MDA-MB-231, 72 h, read-out: Activity
[8] = Cytotoxicity against human HCT15 cells assessed as cell growth at 10 uM after 72 hrs by SRB assay relative to control; settings: HCT-15, 72 h, read-out: Activity
A549 = test: Cytotoxicity against human A549 cells assessed as cell growth at 10 uM after 72 hrs by SRB assay relative to control; settings: A549, 72 h, read-out: Activity
[9] = Cytotoxicity against human Hs 578T cells assessed as cell growth at 10 uM after 72 hrs by SRB assay relative to control; settings: read-out: Activity
[10] = Cytotoxicity against human SNB75 cells assessed as cell growth at 10 uM after 72 hrs by SRB assay relative to control; settings: SNB-75, 72 h, read-out: Activity
MDA-MB-468 = test: Cytotoxicity against human MDA-MB-468 cells assessed as cell growth at 10 uM after 72 hrs by SRB assay relative to control; settings: MDA-MB-468, 72 h, read-out: Activity
CCRF-CEM = test: Cytotoxicity against human CCRF-CEM cells assessed as cell growth at 10 uM after 72 hrs by SRB assay relative to control; settings: read-out: Activity
[11] = Cytotoxicity against human HCT116 cells assessed as cell growth at 10 uM after 72 hrs by SRB assay relative to control; settings: HCT-116, 72 h, read-out: Activity
T47D = test: Cytotoxicity against human T47D cells assessed as cell growth at 10 uM after 72 hrs by SRB assay relative to control; settings: read-out: Activity
NCI-H460 = test: Cytotoxicity against human NCI-H460 cells assessed as cell growth at 10 uM after 72 hrs by SRB assay relative to control; settings: NCI-H460, 72 h, read-out: Activity
A498 = test: Cytotoxicity against human A498 cells assessed as cell growth at 10 uM after 72 hrs by SRB assay relative to control; settings: A498, 72 h, read-out: Activity
[12] = Cytotoxicity against human HOP92 cells assessed as cell growth at 10 uM after 72 hrs by SRB assay relative to control; settings: HOP-92, 72 h, read-out: Activity
SK-MEL-5 = test: Cytotoxicity against human SK-MEL-5 cells assessed as cell growth at 10 uM after 72 hrs by SRB assay relative to control; settings: SK-MEL-5, 72 h, read-out: Activity
[13] = Cytotoxicity against human DU145 cells assessed as cell growth at 10 uM after 72 hrs by SRB assay relative to control; settings: DU-145, 72 h, read-out: Activity
SR = test: Cytotoxicity against human SR cells assessed as cell growth at 10 uM after 72 hrs by SRB assay relative to control; settings: read-out: Activity
[14] = Cytotoxicity against human RXF393 cells assessed as cell growth at 10 uM after 72 hrs by SRB assay relative to control; settings: RXF 393, 72 h, read-out: Activity
[15] = Cytotoxicity against human HL-60(TB) cells assessed as cell growth at 10 uM after 72 hrs by SRB assay relative to control; settings: HL-60, 72 h, read-out: Activity
K562 = test: Cytotoxicity against human K562 cells assessed as cell growth at 10 uM after 72 hrs by SRB assay relative to control; settings: K562, 72 h, read-out: Activity
Malme-3M = test: Cytotoxicity against human MALME-3M cells assessed as cell growth at 10 uM after 72 hrs by SRB assay relative to control; settings: read-out: Activity
[16] = Cytotoxicity against human NCI-ADR-RES cells assessed as cell growth at 10 uM after 72 hrs by SRB assay relative to control; settings: read-out: Activity
[17] = Cytotoxicity against human HCC2998 cells assessed as cell growth at 10 uM after 72 hrs by SRB assay relative to control; settings: HCC 2998, 72 h, read-out: Activity
[18] = Cytotoxicity against human OVCAR5 cells assessed as cell growth at 10 uM after 72 hrs by SRB assay relative to control; settings: OVCAR-5, 72 h, read-out: Activity
[19] = Cytotoxicity against human MOLT4 cells assessed as cell growth at 10 uM after 72 hrs by SRB assay relative to control; settings: MOLT-4, 72 h, read-out: Activity
[20] = Cytotoxicity against human TK10 cells assessed as cell growth at 10 uM after 72 hrs by SRB assay relative to control; settings: TK-10, 72 h, read-out: Activity
[21] = Cytotoxicity against human COLO205 cells assessed as cell growth at 10 uM after 72 hrs by SRB assay relative to control; settings: COLO 205, 72 h, read-out: Activity
[22] = Cytotoxicity against human IGROV1 cells assessed as cell growth at 10 uM after 72 hrs by SRB assay relative to control; settings: IGROV-1, 72 h, read-out: Activity
U-251 = test: Cytotoxicity against human U251 cells assessed as cell growth at 10 uM after 72 hrs by SRB assay relative to control; settings: U-251, 72 h, read-out: Activity
KM12 = test: Cytotoxicity against human KM12 cells assessed as cell growth at 10 uM after 72 hrs by SRB assay relative to control; settings: KM12, 72 h, read-out: Activity

Row | Compound | growth at 10 µM [1] [%] | growth at 10 µM [2] [%] | growth at 10 µM (NCI-H226) [%] | growth at 10 µM [3] [%] | growth at 10 µM [5] [%] | growth at 10 µM [6] [%] | growth at 10 µM [7] [%] | growth at 10 µM (ACHN) [%] | growth at 10 µM [8] [%] | growth at 10 µM (A549) [%] | growth at 10 µM [9] [%] | growth at 10 µM [10] [%] | growth at 10 µM (MDA-MB-468) [%] | growth at 10 µM (CCRF-CEM) [%] | growth at 10 µM [11] [%] | growth at 10 µM (T47D) [%] | growth at 10 µM (NCI-H460) [%] | growth at 10 µM (A498) [%] | growth at 10 µM [12] [%] | growth at 10 µM (SK-MEL-5) [%] | also measured
1 | Cc1ccc2nc(Nc3ncnc4c3cnn4-c3ccccc3)sc2c1 | 100 | 114 | 101 | 108 | 108 | 110 | 103 | 107 | 97.8 | 102 | 120 | 107 | 80.3 | 87.9 | 99.4 | 108 | 98.4 | 66.4 | 97.5 | 92.1 | growth at 10 µM [4]: 98.2%; growth at 10 µM (MDA-MB-231): 102%; growth at 10 µM [13]: 103%; growth at 10 µM (SR): 44.8%; growth at 10 µM [14]: 99%; growth at 10 µM [15]: 103%; growth at 10 µM (K562): 102%; growth at 10 µM (Malme-3M): 87%; growth at 10 µM [16]: 106%; growth at 10 µM [17]: 106%; growth at 10 µM [18]: 96%; growth at 10 µM [19]: 102%; growth at 10 µM [20]: 118%; growth at 10 µM [21]: 110%; growth at 10 µM [22]: 99.6%; growth at 10 µM (U-251): 103%; growth at 10 µM (KM12): 98.9%
2 | Clc1ccc(-n2ncc3c(Nc4ccc(OCc5ccccc5)cc4)ncnc32)cc1 | 101 | 99.7 | 102 | 102 | 107 | 81.6 | 93.7 | 98.6 | 87.2 | 88.8 | 96.6 | 86.4 | 91.5 | 78.9 | 94.8 | 82.5 | 93.1 | 85.2 | 97.8 | 94.4 | growth at 10 µM [13]: 100%; growth at 10 µM (SR): 83.3%; growth at 10 µM [14]: 97.8%; growth at 10 µM [15]: 86.9%; growth at 10 µM (K562): 87.3%; growth at 10 µM (Malme-3M): 85.1%; growth at 10 µM [16]: 94.5%; growth at 10 µM [17]: 98%; growth at 10 µM [18]: 92.8%; growth at 10 µM [19]: 89.6%; growth at 10 µM [20]: 92.1%; growth at 10 µM [21]: 91.2%; growth at 10 µM [22]: 102%; growth at 10 µM (U-251): 95%; growth at 10 µM (KM12): 80.2%
3 | c1ccc(COc2ccc(Nc3ncnc4c3cnn4-c3ccccc3)cc2)cc1 | 98.7 | 108 | 103 | 113 | 106 | 104 | 99.1 | 104 | 72.4 | 104 | 109 | 102 | 93.1 | 80.8 | 106 | 100 | 93.7 | 77.9 | 98.8 | 94.3 | growth at 10 µM [4]: 96%; growth at 10 µM (MDA-MB-231): 101%; growth at 10 µM [13]: 104%; growth at 10 µM (SR): 92%; growth at 10 µM [14]: 102%; growth at 10 µM [15]: 99.8%; growth at 10 µM (K562): 90.3%; growth at 10 µM (Malme-3M): 92.8%; growth at 10 µM [16]: 107%; growth at 10 µM [17]: 108%; growth at 10 µM [18]: 98.9%; growth at 10 µM [19]: 93.1%; growth at 10 µM [20]: 111%; growth at 10 µM [21]: 107%; growth at 10 µM [22]: 100%; growth at 10 µM (U-251): 106%; growth at 10 µM (KM12): 98.2%
4 | O=c1sc2cc(Nc3ncnc4c3cnn4-c3ccccc3)ccc2n1Cc1ccc(Cl)cc1 | 84.4 | 85.6 | 71.4 | 86.6 | 101 | 94 | 71.6 | 74.6 | 86.5 | 78 | 81.1 | 88.3 | 65.9 | 63.6 | 80.3 | 62.3 | 83.5 | 59 | 64.4 | 87.2 | growth at 10 µM [4]: 85.6%; growth at 10 µM (MDA-MB-231): 57.7%; growth at 10 µM [13]: 94.5%; growth at 10 µM (SR): 80.6%; growth at 10 µM [14]: 79.5%; growth at 10 µM [15]: 66.9%; growth at 10 µM (K562): 49.6%; growth at 10 µM (Malme-3M): 86.4%; growth at 10 µM [16]: 84.8%; growth at 10 µM [18]: 75.1%; growth at 10 µM [19]: 58.6%; growth at 10 µM [20]: 105%; growth at 10 µM [21]: 92.7%; growth at 10 µM [22]: 81.8%; growth at 10 µM (U-251): 96.6%; growth at 10 µM (KM12): 71.6%
5 | O=C(NC1CCCCC1)c1ccc(Nc2ncnc3c2cnn3-c2ccccc2)cc1 | 72.9 | 36.9 | 19.1 | 87.4 | 59.8 | -66.5 | 62.3 | 54.3 | 66.6 | 16.6 | 0.22 | -20.4 | 76.1 | 64.9 | 37.6 | 76.8 | 42.2 | 50.4 | 37.7 | 75.4 | growth at 10 µM [4]: 48.7%; growth at 10 µM (MDA-MB-231): 8.76%; growth at 10 µM [13]: 54.6%; growth at 10 µM (SR): 67.5%; growth at 10 µM [14]: 62.2%; growth at 10 µM [15]: 106%; growth at 10 µM (K562): 73.2%; growth at 10 µM (Malme-3M): 2.93%; growth at 10 µM [16]: 74.2%; growth at 10 µM [18]: 80.3%; growth at 10 µM [19]: 89.5%; growth at 10 µM [20]: 51%; growth at 10 µM [21]: 65.4%; growth at 10 µM [22]: 71.1%; growth at 10 µM (U-251): 40.2%; growth at 10 µM (KM12): 88.5%

Reference: ChEMBL document CHEMBL3751764, “Synthesis and in vitro antiproliferative activity of novel pyrazolo[3,4-d]pyrimidine derivatives” (Medchemcomm, 2015)
